The CheMixHub viscosity set
Values joined by “and” are separate entries in the source; they are usually repeats but may differ in a detail not shown here. Equal entries are not always repeated.

What was measured:
[1] = xn = mol fraction of the nth substance listed

CC(C)CCCC(C)CCCC(C)CCCCC(C)CCCC(C)CCCC(C)C (centres undefined)
100 kPa
Conditions | viscosity [mPa·s]
293.15 K | 35.3
313.15 K | 15.4

Cc1ccc(C)cc1
Conditions | viscosity
293.15 K, 101 kPa | 0.5756 mPa·s and 0.6402 mPa·s and 0.6388 mPa·s
293.15 K, 101.2 kPa | 0.6517 mPa·s
293.15 K, 101.3 kPa | 0.6332 mPa·s and 0.6589 mPa·s
298 K, 101.3 kPa | 0.615 mPa·s
298.15 K, 100 kPa | 0.6118 mPa·s
298.15 K, 101.2 kPa | 0.6083 mPa·s
303.15 K, 101.2 kPa | 0.5753 mPa·s
303.15 K, 101.3 kPa | 0.5702 mPa·s
303.15 K, 101.32 kPa | 0.564 mPa·s
303.15 K, 101.33 kPa | 0.5694 mPa·s and 0.519 mPa·s and 0.57 mPa·s
307.35 K, 101.33 kPa | 0.539 mPa·s
308.15 K, 100 kPa | 0.5508 mPa·s
308.15 K, 101.2 kPa | 0.5364 mPa·s
308.15 K, 101.3 kPa | 0.5381 mPa·s
313.15 K, 101.2 kPa | 0.5094 mPa·s
313.15 K, 101.3 kPa | 0.5309 mPa·s and 0.5117 mPa·s and 0.5086 mPa·s
313.15 K, 101.33 kPa | 0.5064 mPa·s
318 K, 101.3 kPa | 0.4919 mPa·s
318.15 K, 101 kPa | 0.4925 mPa·s and 0.462 mPa·s and 0.483 mPa·s
318.15 K, 101.2 kPa | 0.5049 mPa·s
318.15 K, 101.3 kPa | 0.4817 mPa·s
323.15 K, 101.3 kPa | 0.4738 mPa·s and 0.4571 mPa·s

NCCO.O=CO
viscosity
Conditions | 293.15 K | 298.15 K | 303.15 K | 308.15 K | 313.15 K | 318.15 K | 323.15 K
100 kPa | – | 79.13 mPa·s and 79.13 mPa·s | 63.01 mPa·s and 63.01 mPa·s | 51.79 mPa·s and 51.79 mPa·s | 43.03 mPa·s and 43.03 mPa·s | 36.34 mPa·s and 36.34 mPa·s | 30.76 mPa·s and 30.76 mPa·s
101 kPa | 268.9 mPa·s | 198.1 mPa·s | 149.5 mPa·s | 115.4 mPa·s | 91 mPa·s | 72.85 mPa·s | 58.64 mPa·s

O=Cc1ccccc1
viscosity
Conditions | 293.15 K | 298.1 K | 298.15 K | 303.15 K | 308.15 K | 313.15 K | 318.15 K | 323.15 K
100 kPa | 1.495 mPa·s | – | – | – | – | – | – | –
101 kPa | – | 1.37 mPa·s | 1.392 mPa·s | 1.26 mPa·s | 1.215 mPa·s | – | 0.9051 mPa·s and 1.051 mPa·s | 0.975 mPa·s
101.33 kPa | 1.397 mPa·s | – | 1.445 mPa·s and 1.321 mPa·s and 1.385 mPa·s | 1.278 mPa·s | 1.13 mPa·s and 1.178 mPa·s | 1.17 mPa·s | 1.034 mPa·s | 1.072 mPa·s

OCCOCCO
viscosity
Conditions | 293.15 K | 298.1 K | 298.15 K | 308.15 K | 313.15 K
101 kPa | 38.82 mPa·s and 38.82 mPa·s and 38.82 mPa·s (2×) | 27.87 mPa·s | 27.15 mPa·s and 27.14 mPa·s | 17.26 mPa·s | 14.81 mPa·s
101.32 kPa | 33.6 mPa·s | – | – | – | 12.8 mPa·s
101.33 kPa | – | – | 26.81 mPa·s | – | –

[Cl-].[Cl-].[Cl-].[Cl-].[Ge+4]
101 kPa
Conditions | viscosity [mPa·s]
293.15 K | 0.599
298.15 K | 0.589
303.15 K | 0.561
313.15 K | 0.516

c1ccsc1
viscosity
Conditions | 293.15 K | 298.15 K | 303.15 K | 308.15 K | 313.15 K | 318.15 K | 323.15 K
100 kPa | – | 0.655 mPa·s | – | 0.585 mPa·s | – | 0.525 mPa·s | –
101 kPa | 0.653 mPa·s | 0.62 mPa·s and 0.615 mPa·s | 0.58 mPa·s | 0.54 mPa·s and 0.545 mPa·s | 0.518 mPa·s | 0.48 mPa·s and 0.491 mPa·s | 0.464 mPa·s

C=C(C)C(=O)OCCCCCCC + c1ccccc1
viscosity [mPa·s], [1], 101 kPa
Conditions | x1 = 0.002 | x1 = 0.004 | x1 = 0.01 | x1 = 0.02
303 K | 0.5525 | 0.5621 | 0.5849 | 0.5828
313 K | 0.4874 | 0.4915 | 0.5123 | 0.5115
323 K | 0.4321 | 0.4362 | 0.4518 | 0.4535

CCCCCCCCN + c1ccccc1
[1], 303.15 K, 101 kPa
Conditions | viscosity [mPa·s]
x2 = 0.1044 | 1.099
x2 = 0.3007 | 0.9459
x2 = 0.498 | 0.7915
x2 = 0.597 | 0.7318
x2 = 0.6967 | 0.6798
x2 = 0.7998 | 0.6239
x2 = 0.899 | 0.5891

Cc1ccc(C)cc1 + c1ccccc1
[1]
Conditions | viscosity [mPa·s]
293.15 K, 101.33 kPa, x2 = 0.2202 | 0.631
293.15 K, 101.33 kPa, x2 = 0.42 | 0.623
293.15 K, 101.33 kPa, x2 = 0.7393 | 0.627
293.15 K, 101.33 kPa, x2 = 0.8207 | 0.628
298 K, 101.3 kPa, x2 = 0.2099 | 0.603
298 K, 101.3 kPa, x2 = 0.3766 | 0.596
298 K, 101.3 kPa, x2 = 0.5839 | 0.596
298 K, 101.3 kPa, x2 = 0.7205 | 0.596
298 K, 101.3 kPa, x2 = 0.8802 | 0.599
303 K, 101 kPa, x1 = 0.1002 | 0.5613
303 K, 101 kPa, x1 = 0.2018 | 0.5603
303 K, 101 kPa, x1 = 0.3012 | 0.5605
303 K, 101 kPa, x1 = 0.397 | 0.5611
303 K, 101 kPa, x1 = 0.4983 | 0.5617
303 K, 101 kPa, x1 = 0.5959 | 0.5628
303 K, 101 kPa, x1 = 0.7005 | 0.5641
303 K, 101 kPa, x1 = 0.8019 | 0.5666
303 K, 101 kPa, x1 = 0.8988 | 0.5684
303.15 K, 101.33 kPa, x2 = 0.2202 | 0.557
303.15 K, 101.33 kPa, x2 = 0.42 | 0.55
303.15 K, 101.33 kPa, x2 = 0.7393 | 0.55
303.15 K, 101.33 kPa, x2 = 0.8207 | 0.553
313 K, 101 kPa, x1 = 0.1002 | 0.4975
313 K, 101 kPa, x1 = 0.2018 | 0.4982
313 K, 101 kPa, x1 = 0.3012 | 0.4993
313 K, 101 kPa, x1 = 0.397 | 0.502
313 K, 101 kPa, x1 = 0.4983 | 0.5024
313 K, 101 kPa, x1 = 0.5959 | 0.5039
313 K, 101 kPa, x1 = 0.7005 | 0.5071
313 K, 101 kPa, x1 = 0.8019 | 0.509
313 K, 101 kPa, x1 = 0.8988 | 0.5122
313.15 K, 101.33 kPa, x2 = 0.2202 | 0.497
313.15 K, 101.33 kPa, x2 = 0.42 | 0.493
313.15 K, 101.33 kPa, x2 = 0.7393 | 0.49
313.15 K, 101.33 kPa, x2 = 0.8207 | 0.485
318 K, 101.3 kPa, x2 = 0.1977 | 0.4856
318 K, 101.3 kPa, x2 = 0.3756 | 0.4775
318 K, 101.3 kPa, x2 = 0.5821 | 0.4739
318 K, 101.3 kPa, x2 = 0.7212 | 0.472
318 K, 101.3 kPa, x2 = 0.8882 | 0.4718
323 K, 101 kPa, x1 = 0.1002 | 0.4435
323 K, 101 kPa, x1 = 0.2018 | 0.4443
323 K, 101 kPa, x1 = 0.3012 | 0.4462
323 K, 101 kPa, x1 = 0.397 | 0.4502
323 K, 101 kPa, x1 = 0.4983 | 0.4513
323 K, 101 kPa, x1 = 0.5959 | 0.4527
323 K, 101 kPa, x1 = 0.7005 | 0.4554
323 K, 101 kPa, x1 = 0.8019 | 0.4585
323 K, 101 kPa, x1 = 0.8988 | 0.4596
323.15 K, 101.33 kPa, x2 = 0.2202 | 0.45
323.15 K, 101.33 kPa, x2 = 0.42 | 0.447
323.15 K, 101.33 kPa, x2 = 0.7393 | 0.442
323.15 K, 101.33 kPa, x2 = 0.8207 | 0.435

O=Cc1ccccc1 + c1ccccc1
viscosity [mPa·s], [1], 101 kPa
Conditions | x1 = 0.1 | x1 = 0.2 | x1 = 0.4 | x1 = 0.5 | x1 = 0.6
298.15 K | 0.655 | 0.714 | 0.847 | 0.928 | 1.012
308.15 K | 0.583 | 0.625 | 0.742 | 0.809 | 0.885
318.15 K | 0.509 | 0.551 | 0.667 | 0.711 | 0.773
323.15 K | 0.477 | 0.517 | – | 0.665 | 0.724
